Experimental data reported in patent US5883243A, “Non-reducing saccharides, their preparations and uses” (Kabushiki Kaisha Hayashibara Seibutsu Kagaku Kenkyujo, priority 1997, dated 1999).

How the values were obtained:
[1] = Maillard reaction (coloration with glycine); assay type: physicochemical; conditions: 10 w/v % saccharide, one w/v % glycine, 50 mM phosphate buffer pH 7.0, 100° C., 90 min; 1-cm cell
[2] = system: Bifidobacterium adolescentis JCM 1275; test: Assimilation test by intestinal microorganism; assay type: cell-based; conditions: 0.5 w/v % saccharide in PYF broth, 37° C., 96 hours
[3] = system: Bifidobacterium animalis JCM 1190; test: Assimilation test by intestinal microorganism; assay type: cell-based; conditions: 0.5 w/v % saccharide in PYF broth, 37° C., 96 hours
[4] = system: Bifidobacterium bifidum JCM 1255; test: Assimilation test by intestinal microorganism; assay type: cell-based; conditions: 0.5 w/v % saccharide in PYF broth, 37° C., 96 hours
[5] = system: Bifidobacterium breve JCM 1192; test: Assimilation test by intestinal microorganism; assay type: cell-based; conditions: 0.5 w/v % saccharide in PYF broth, 37° C., 96 hours
[6] = system: Bifidobacterium infantis JCM 1222; test: Assimilation test by intestinal microorganism; assay type: cell-based; conditions: 0.5 w/v % saccharide in PYF broth, 37° C., 96 hours
[7] = system: Bifidobacterium longum JCM 1217; test: Assimilation test by intestinal microorganism; assay type: cell-based; conditions: 0.5 w/v % saccharide in PYF broth, 37° C., 96 hours
[8] = system: Lactobacillus fermentum IFO 3959; test: Assimilation test by intestinal microorganism; assay type: cell-based; conditions: 0.5 w/v % saccharide in PYF broth, 37° C., 96 hours
[9] = system: Lactobacillus plantarum IFO 3070; test: Assimilation test by intestinal microorganism; assay type: cell-based; conditions: 0.5 w/v % saccharide in PYF broth, 37° C., 96 hours
[10] = system: Eubacterium aerofaciens ATCC 25986; test: Assimilation test by intestinal microorganism; assay type: cell-based; conditions: 0.5 w/v % saccharide in PYF broth, 37° C., 96 hours
[11] = system: Bacteroides distasonis JCM 5825; test: Assimilation test by intestinal microorganism; assay type: cell-based; conditions: 0.5 w/v % saccharide in PYF broth, 37° C., 96 hours
[12] = system: Bacteroides vulgatus JCM 5826; test: Assimilation test by intestinal microorganism; assay type: cell-based; conditions: 0.5 w/v % saccharide in PYF broth, 37° C., 96 hours
[13] = system: Bacteroides uniformis JCM 5828; test: Assimilation test by intestinal microorganism; assay type: cell-based; conditions: 0.5 w/v % saccharide in PYF broth, 37° C., 96 hours
[14] = system: Clostridium butyricum JCM 1391; assay type: cell-based; conditions: 0.5 w/v % saccharide in PYF broth, 37° C., 96 hours
[15] = system: Clostridium perfringens JCM 3816; assay type: cell-based; conditions: 0.5 w/v % saccharide in PYF broth, 37° C., 96 hours
[16] = system: Clostridium ramosum JCM 1298; test: Assimilation test by intestinal microorganism; assay type: cell-based; conditions: 0.5 w/v % saccharide in PYF broth, 37° C., 96 hours
[17] = system: Streptococcus faecalis IAM 10065; test: Assimilation test by intestinal microorganism; assay type: cell-based; conditions: 0.5 w/v % saccharide in PYF broth, 37° C., 96 hours
[18] = system: Peptostreptococcus prevotii ATCC 9321; test: Assimilation test by intestinal microorganism; assay type: cell-based; conditions: 0.5 w/v % saccharide in PYF broth, 37° C., 96 hours
[19] = system: Escherichia coli IFO 3301; test: Assimilation test by intestinal microorganism; assay type: cell-based; conditions: 0.5 w/v % saccharide in PYF broth, 37° C., 96 hours
[20] = system: crude glucosyltransferase specimen derived from Streptococcus sobrinus strain (ATCC 27351); test: Inhibition of insoluble glucan formation by glucosyltransferase from dental caries-inducing microorganism; assay type: biochemical; conditions: for Yield of non-adsorbed glucans / Yield of adsorbed glucans: sucrose plus test saccharide (one ml of one w/v % each), pH 6.8, 37° C., 16 hours; for Yield of non-adsorbed glucans: sucrose alone 923; for Yield of adsorbed glucans: sucrose alone 1,160
Method: To a mixture solution consisting of one ml of one w/v % sucrose solution, one ml of one w/v % of a test saccharide solution, and 1.5 ml of 0.1M phosphate buffer (pH 6.8) was added 0.5 ml solution containing a crude glucosyltransferase specimen in a total protein content of 10 mg, and the mixture solution was placed in a small test tube which was then fixed and slanted to give a grade 30 degrees and allowed to react at 37° C. for 16 hours. The reaction mixture was transferred gently to another test tube and mixed with a solution obtained by washing carefully with 4 ml water the remaining substances adhered to the inner walls of the small test tube, and the mixture solution was centrifuged to obtain a precipitate as a non-adsorbed glucan. The amounts of the adsorbed- and non-adsorbed glucans thus obtained were respectively quantified by the anthrone-sulfuric acid method, and the total amount of them was regarded as the amount of the formed insoluble glucans. As a control system, a reaction system using water in place of the test saccharide solution, i.e. a reaction system using sucrose as a saccharide, was provided.

[21] = system: Streptococcus sobrinus ATCC 27351; test: Acid formation by dental caries-inducing microorganisms; conditions: living wet cells, 0.02M saccharide, Stephen buffer pH 7.0, 37° C.; for pH at each fermentation time (min): 0: 0 min; for pH at each fermentation time (min): 5: 5 min; for pH at each fermentation time (min): 15: 15 min; for pH at each fermentation time (min): 30: 30 min; for pH at each fermentation time (min): 60: 60 min; for pH at each fermentation time (min): 90: 90 min
[22] = system: Clostridium sporogenes JCM 1416; test: Assimilation test by intestinal microorganism; assay type: cell-based; conditions: 0.5 w/v % saccharide in PYF broth, 37° C., 96 hours, free of sugar: ±
Method: (§1) To evaluate the growth rate of and to judge the assimilability by the microorganisms, the resultant broth was diluted 5-fold, and the turbidity of the dilution was measured at a wavelength of 750 nm in a 1-cm light-path cell. […] The criteria were in Table 3, and the results were in Tables 4 and 5: […]

[23] = system: bifid bacteria; test: Assimilation test by intestinal microorganism, overall judgement; assay type: cell-based; conditions: results of Tables 4 and 5
Method: as §1

[24] = system: Enzyme from small intestinal mucus membrane; conditions: enzymes of small intestinal mucus membranes

Structure (SMILES)	Judgement of assimilation (turbidity at a wavelength of 750 nm × 5) [2]	Judgement of assimilation (turbidity at a wavelength of 750 nm × 5) [3]	Judgement of assimilation (turbidity at a wavelength of 750 nm × 5) [4]	Judgement of assimilation (turbidity at a wavelength of 750 nm × 5) [5]	Judgement of assimilation (turbidity at a wavelength of 750 nm × 5) [6]	Judgement of assimilation (turbidity at a wavelength of 750 nm × 5) [7]	Judgement of assimilation (turbidity at a wavelength of 750 nm × 5) [8]	Judgement of assimilation (turbidity at a wavelength of 750 nm × 5) [9]	Judgement of assimilation (turbidity at a wavelength of 750 nm × 5) [10]	Judgement of assimilation (turbidity at a wavelength of 750 nm × 5) [11]	Judgement of assimilation (turbidity at a wavelength of 750 nm × 5) [12]	Judgement of assimilation (turbidity at a wavelength of 750 nm × 5) [13]	Judgement of assimilation (turbidity at a wavelength of 750 nm × 5) [16]	Judgement of assimilation (turbidity at a wavelength of 750 nm × 5) [17]	pH at each fermentation time (min): 0 [21]	pH at each fermentation time (min): 5 [21]	pH at each fermentation time (min): 15 [21]	pH at each fermentation time (min): 30 [21]	pH at each fermentation time (min): 60 [21]	pH at each fermentation time (min): 90 [21]	other results
OC[C@H]1O[C@H](O[C@H]2O[C@H](CO)[C@@H](O)[C@H](O)[C@H]2O)[C@H](O)[C@@H](O)[C@@H]1O [Trehalose, trehalose, reference compound]	+ (0.15 or higher but less than 0.2)	+ (0.15 or higher but less than 0.2)	+ (0.15 or higher but less than 0.2)	- (Less than 0.1)	- (Less than 0.1)	++ (0.2 or higher but less than 0.3)	+ (0.15 or higher but less than 0.2)	++ (0.2 or higher but less than 0.3)	- (Less than 0.1)	++ (0.2 or higher but less than 0.3)	+ (0.15 or higher but less than 0.2)	++ (0.2 or higher but less than 0.3)	+ (0.15 or higher but less than 0.2)	+ (0.15 or higher but less than 0.2)	7.0	6.7	5.3	4.7	4.3	4.2	Coloration degree (at a wavelength of 480 nm) [1]: 0.007; Judgement of assimilation (turbidity at a wavelength of 750 nm × 5) [14]: +++ (0.3 or higher); Judgement of assimilation (turbidity at a wavelength of 750 nm × 5) [15]: +++ (0.3 or higher); Judgement of assimilation (turbidity at a wavelength of 750 nm × 5) [18]: + (0.15 or higher but less than 0.2); Judgement of assimilation (turbidity at a wavelength of 750 nm × 5) [19]: - (Less than 0.1); Yield of non-adsorbed glucans [20]: 1,130 μg/ml; Yield of adsorbed glucans [20]: 772 µg/mL; Inhibitory percentage (%) on insoluble glucans' formation ([20]; sucrose plus test saccharide, versus sucrose alone): 8.7%
OC[C@H]1O[C@H](OC[C@H]2OC(O)[C@H](O)[C@@H](O)[C@@H]2O)[C@H](O)[C@@H](O)[C@@H]1O (some centres unmarked) [Isomaltose, isomaltose, reference compound]	+++ (0.3 or higher)	+++ (0.3 or higher)	+ (0.15 or higher but less than 0.2)	+++ (0.3 or higher)	+++ (0.3 or higher)	++ (0.2 or higher but less than 0.3)	- (Less than 0.1)	- (Less than 0.1)	+ (0.15 or higher but less than 0.2)	+ (0.15 or higher but less than 0.2)	- (Less than 0.1)	- (Less than 0.1)	- (Less than 0.1)	+ (0.15 or higher but less than 0.2)	7.0	7.0	6.9	6.9	6.8	6.7	Judgement of assimilation (turbidity at a wavelength of 750 nm × 5) [15]: ± (0.1 or higher but less than 0.15); Judgement of assimilation (turbidity at a wavelength of 750 nm × 5) [22]: ± (0.1 or higher but less than 0.15); Judgement of assimilation (turbidity at a wavelength of 750 nm × 5) [18]: - (Less than 0.1); Judgement of assimilation (turbidity at a wavelength of 750 nm × 5) [19]: - (Less than 0.1)
OC[C@H]1O[C@@](CO)(O[C@H]2O[C@H](CO)[C@@H](O)[C@H](O)[C@H]2O)[C@@H](O)[C@@H]1O [Sucrose, sucrose, reference compound]	–	–	–	–	–	–	–	–	–	–	–	–	–	–	7.0	4.3	4.1	4.0	4.0	4.0	–
OC[C@H]1O[C@H](OC[C@H]2O[C@H](OC[C@H]3O[C@H](O[C@H]4O[C@H](CO)[C@@H](O)[C@H](O)[C@H]4O)[C@H](O)[C@@H](O)[C@@H]3O)[C@H](O)[C@@H](O)[C@@H]2O)[C@H](O)[C@@H](O)[C@@H]1O [α-Isomaltotriosyl α-glucoside, O-α-D-glucopyranosyl-(1→6 )-O-α-D-glucopyranosyl-(1→6)-α-D-glucopyranosyl α-D-glucopyrandside]	+++ (0.3 or higher)	+++ (0.3 or higher)	++ (0.2 or higher but less than 0.3)	+++ (0.3 or higher)	++ (0.2 or higher but less than 0.3)	+++ (0.3 or higher)	- (Less than 0.1)	- (Less than 0.1)	- (Less than 0.1)	- (Less than 0.1)	- (Less than 0.1)	- (Less than 0.1)	- (Less than 0.1)	- (Less than 0.1)	7.0	7.0	6.9	6.9	6.9	6.9	Coloration degree (at a wavelength of 480 nm) [1]: 0.019; Judgement of assimilation (turbidity at a wavelength of 750 nm × 5) [14]: +++ (0.3 or higher); Judgement of assimilation (turbidity at a wavelength of 750 nm × 5) [18]: ± (0.1 or higher but less than 0.15); Judgement of assimilation (turbidity at a wavelength of 750 nm × 5) [19]: - (Less than 0.1); Selective assimilability by bifid bacteria, in words [23]: high in the selective assimilability by bifid bacteria; Yield of non-adsorbed glucans [20]: 269 µg/mL; Yield of adsorbed glucans [20]: 66 µg/mL; Digestibility, judgement in words [24]: relatively-low in digestibility
